We go through 11 compounds from PubChem BioAssay (NCI).

Test systems include M19-MEL melanoma; MALME-3M melanoma; SK-MEL-28 melanoma; NCI-H226 lung; OVCAR-5 ovarian; OVCAR-8 ovarian; 786-0 renal; SNB-78 CNS; NCI/ADR-RES ovarian; DU-145 prostate.
Assay in all cases: DTP human tumour cell line panel, 48 h

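48-hour exposure; five concentrations; linearly interpolated endpoints. GI50: concentration for 50% inhibition of growth. TGI is the concentration that stops growth completely.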

By TGI is commonly meant the concentration at which net growth stops. Read a high TGI as lower sensitivity of the cells. With `N#CCCCCCOCCOCCOCCOCCOCCCCCC#N`, the TGI with M19-MEL melanoma, with MALME-3M melanoma, in the assay on SK-MEL-28 melanoma, with NCI-H226 lung, with OVCAR-5 ovarian and with OVCAR-8 ovarian was more than 100 µM in each case. In addition, the TGI in the assay with 786-0 renal was more than 100 µM.
As a reminder, the GI50 is the concentration that inhibits growth by half. Take `CC[C@@]1(O)C(=O)OCc2c1cc1n(c2=O)Cc2cc3cccc([N+](=O)[O-])c3nc2-1`: the GI50 is 4.35 µM in the assay on MALME-3M melanoma; 34.3 µM in the assay on SNB-78 CNS; 43.9 µM in the assay on SK-MEL-28 melanoma; 0.552 µM with NCI-H226 lung; 1.55 µM with OVCAR-5 ovarian; 0.857 µM in the assay on OVCAR-8 ovarian. Also, the concentration for 50% growth inhibition (GI50) with 786-0 renal is 0.3 µM. In addition, the total growth inhibition concentration (TGI) with MALME-3M melanoma is more than 100 µM; in the assay on SNB-78 CNS, more than 100 µM; with SK-MEL-28 melanoma it was more than 100 µM; in the assay on NCI-H226 lung, 6.49 µM; with OVCAR-5 ovarian, 28.4 µM; in the assay on OVCAR-8 ovarian it was more than 100 µM. The compound further yielded a concentration for total growth inhibition (TGI) with 786-0 renal of 1.29 µM.
For the compound `COc1ccc(NC(=O)CC/C(CC(=O)c2ccco2)=N/NC(N)=S)cc1`, the total growth inhibition concentration (TGI) in the assay on M19-MEL melanoma, in the assay on MALME-3M melanoma, with SNB-78 CNS, in the assay with NCI-H226 lung, in the assay on OVCAR-5 ovarian and in the assay on OVCAR-8 ovarian was more than 100 µM throughout. Besides, the concentration for total growth inhibition (TGI) in the assay on 786-0 renal was more than 100 µM.
For the compound `CCOC(=O)NC/C=C/COC1CCCCO1` (centres undefined), the TGI in the assay on M19-MEL melanoma, with MALME-3M melanoma, in the assay with SNB-78 CNS, in the assay on SK-MEL-28 melanoma, in the assay on NCI-H226 lung and with OVCAR-8 ovarian was more than 100 µM throughout. This compound gave a TGI with 786-0 renal of more than 100 µM.
Take `COc1ccc(Nc2cc(C)nc(NCc3ccccc3)n2)cc1`: the GI50 was 2.36 µM with MALME-3M melanoma; 2.39 µM in the assay with SK-MEL-28 melanoma; 6.14 µM in the assay with NCI-H226 lung; 2.92 µM with NCI/ADR-RES ovarian; 5.31 µM with OVCAR-5 ovarian; 10.6 µM in the assay on DU-145 prostate. Besides, the results for the GI50 in the assay with OVCAR-8 ovarian and in the assay with 786-0 renal were 6.71 µM and 3.49 µM, respectively. For the same compound, the total growth inhibition concentration (TGI) was 9.2 µM in the assay on MALME-3M melanoma; 6.97 µM in the assay with SK-MEL-28 melanoma; 21.3 µM with NCI-H226 lung; 17.6 µM in the assay on NCI/ADR-RES ovarian; 20.1 µM with OVCAR-5 ovarian; 23 µM in the assay on DU-145 prostate. Besides, the values for the TGI in the assay with OVCAR-8 ovarian and in the assay on 786-0 renal were 35.2 µM and 17.6 µM, respectively.
For `Cc1ccc(-c2cc3c4c(nc5ccccc53)C(=O)c3cccnc3-c4n2)cc1`, the GI50 is 17.8 µM in the assay on MALME-3M melanoma; 19.1 µM in the assay with SK-MEL-28 melanoma; 56.4 µM in the assay on NCI-H226 lung; 14.3 µM in the assay with NCI/ADR-RES ovarian; 23 µM in the assay on OVCAR-5 ovarian; 11.9 µM in the assay on DU-145 prostate. For the same compound, the GI50 with OVCAR-8 ovarian was 11.4 µM; with 786-0 renal it was 18.2 µM. The TGI in the assay on MALME-3M melanoma is 32.6 µM; in the assay on SK-MEL-28 melanoma, 41.1 µM; in the assay on NCI-H226 lung it was more than 100 µM; in the assay with NCI/ADR-RES ovarian, 49.7 µM; in the assay on OVCAR-5 ovarian, 60.9 µM; in the assay with DU-145 prostate, 24.5 µM. Besides, the values for the TGI with OVCAR-8 ovarian and with 786-0 renal were 37.6 µM and 52.5 µM, respectively.
Take `CN1CCC2(CC1)NC(=O)c1c(c3ccc(Cl)c(Cl)c3n1C)C2C#N` (centres undefined): the GI50 in the assay on MALME-3M melanoma is 3.11 µM; in the assay on SK-MEL-28 melanoma, 1.92 µM; in the assay with NCI-H226 lung, 6.52 µM; in the assay on NCI/ADR-RES ovarian, 7.46 µM; in the assay with OVCAR-5 ovarian, 8.67 µM; in the assay on DU-145 prostate it was 6.01 µM. In addition, the GI50 was 10.4 µM with OVCAR-8 ovarian and 10.1 µM in the assay on 786-0 renal. The total growth inhibition concentration (TGI) in the assay on MALME-3M melanoma is 9.52 µM; with SK-MEL-28 melanoma it was 3.89 µM; in the assay with NCI-H226 lung, 30.7 µM; with NCI/ADR-RES ovarian, 23 µM; in the assay on OVCAR-5 ovarian it was 24.3 µM; with DU-145 prostate, 15.2 µM. The total growth inhibition concentration (TGI) in the assay with OVCAR-8 ovarian came to 36.6 µM; in the assay with 786-0 renal, 24 µM.
Take `C#CCN(Cc1nc2cc(C(F)(F)F)ccc2nc1-c1ccccc1)c1ccc(C)cc1`: the GI50 in the assay on MALME-3M melanoma is 15.7 µM; in the assay on SK-MEL-28 melanoma, 13.9 µM; in the assay on NCI-H226 lung it was 8.07 µM; in the assay with NCI/ADR-RES ovarian, 4.58 µM; with OVCAR-5 ovarian it was more than 21.2 µM; in the assay with DU-145 prostate, more than 34.5 µM. Besides, the values for the GI50 in the assay with OVCAR-8 ovarian and in the assay with 786-0 renal were 10.9 µM and 15.5 µM, respectively. Also, the total growth inhibition concentration (TGI) in the assay on MALME-3M melanoma was 42.3 µM; with SK-MEL-28 melanoma it was more than 41 µM; with NCI-H226 lung it was 33 µM; with OVCAR-5 ovarian, more than 40.9 µM; in the assay with DU-145 prostate it was more than 77.9 µM; in the assay with OVCAR-8 ovarian, more than 73.9 µM. The concentration for total growth inhibition (TGI) in the assay with 786-0 renal is more than 42.8 µM.
Consider `CC[C@@H](C(=O)[C@H](C)[C@H](O)[C@@H](C)[C@H]1O[C@H]([C@@H](CC)C(=O)N(CC)CC)CC[C@H]1C)C1O[C@]2(C=C[C@@H](O)[C@]3(CC[C@@](C)([C@H]4CC[C@](O)(CC)[C@H](C)O4)O3)O2)[C@H](C)C[C@@H]1C` (some centres undefined), for which the GI50 with MALME-3M melanoma was 2.21 µM; in the assay with SK-MEL-28 melanoma, 4.97 µM; in the assay on NCI-H226 lung it was 2.69 µM; in the assay with NCI/ADR-RES ovarian, 2.56 µM; with OVCAR-5 ovarian, 2.85 µM; with DU-145 prostate it was 3.91 µM. Besides, the GI50 in the assay with OVCAR-8 ovarian was 3.42 µM; in the assay with 786-0 renal, 3.55 µM. Also, the concentration for total growth inhibition (TGI) came to 5.7 µM with MALME-3M melanoma; 17 µM with SK-MEL-28 melanoma; 10.9 µM in the assay with NCI-H226 lung; 9.27 µM with NCI/ADR-RES ovarian; 11.1 µM in the assay with OVCAR-5 ovarian; 14.9 µM in the assay with DU-145 prostate. Besides, the TGI is 21.1 µM in the assay on OVCAR-8 ovarian and 17.5 µM in the assay on 786-0 renal.
Consider `CC1(C)CC[C@]2(C(=O)O)CC[C@]3(C)C(=CC[C@@H]4[C@@]5(C)C[C@H](O)[C@H](O)[C@@](C)(C(=O)O)[C@@H]5CC[C@]43C)[C@@H]2C1`, for which the TGI in the assay on MALME-3M melanoma, with SK-MEL-28 melanoma, with NCI-H226 lung, in the assay with NCI/ADR-RES ovarian, with OVCAR-5 ovarian and in the assay with DU-145 prostate was more than 100 µM each time. For the same compound, the TGI in the assay with OVCAR-8 ovarian and with 786-0 renal was more than 100 µM throughout.
`COc1cc(O)c2c(c1)O[C@@H]1OCC[C@H]21`: the concentration for total growth inhibition (TGI) with MALME-3M melanoma, with SNB-78 CNS, with SK-MEL-28 melanoma, in the assay on NCI-H226 lung, in the assay with OVCAR-5 ovarian and in the assay on OVCAR-8 ovarian was more than 100 µM each time. The TGI in the assay with 786-0 renal is more than 100 µM.
